The text below walks through data of US20240343828A1, “SPINK1 AS A TARGET FOR THERAPEUTIC INTERVENTION IN LUNG DISEASES” (Northwestern University, priority 2023, published 2024).

The test system of data set [1] is mouse lung. Nature of the data set: scRNA-seq analysis of lung tissues from the animal experiment. Type of data set: in vivo.
Source text: Using the lung tissues collected from our animal experiment, Applicant performed the scRNA-seq analysis and identified 36 different cell types within epithelial, endothelial, stromal and immune compartments (FIG. 17A).
Since AT2s are the fibrosis driver^21,23, Applicant performed the differential gene expression between bleomycin vs combo treatment to identify the potential genes that are invoked by Spink1.
The test system of data set [2] is mouse lung. The experiment in a line: Sircol assay of collagen content. Type of data set: in vivo. An excerpt:
To further understand the impact of Spink1 on lung fibrosis, Applicant performed the molecular experiment to mutate Spink amino acid sequence. Applicant generated two Spink1 variants (protein 2: R19Y and protein 3: R19A) to denote the ones with activity preserved (protein 2: R19Y) and activity ablation (protein 3: R19A). Applicant used these two variants, together with Spink1 wild type protein and PBS, to conduct the animal experiments using healthy mice (FIG. 15).

For data set [3], the system named is fibroblasts. Nature of the data set: Fibroblast proliferation with Spink1 incubation. Type of data set: cell-based. The protocol:
FIGS. 23A-23C: In vitro experiment to validate the functional role of Spink1 in mediating stromal cell activity. Gene expression changes in fibroblasts with the incubation of different concentration of Spink1 protein (FIG. 23A). The proliferation rate of fibroblasts with the incubation of Spink1 (FIG. 23B). The proliferation rate was calculated as the difference between end point and start point, followed by the division of start point value. Zero proliferation rate indicates no proliferation is detected. The changes of aSMA gene in fibroblasts with the incubation of Spink1 and EGFR inhibitor of AG1468 (FIG. 23C).
Applicant also tested the proliferation activity of fibroblast with the incubation of Spink1. […] Furthermore, Applicant hypothesized that the differentiation of fibroblast toward aSMA+ cells could be EGFR pathway dependent.

Data set [4] has as its system fibroblasts. The experiment in a line: In vitro fibroblast gene expression with Spink1 incubation. Type of data set: cell-based. The settings on record: different Spink1 concentrations, 24 hours. As to the method:
Applicant performed an in vitro experiment to further validate the functional role of SPINK1 in mediating fibroblasts and aSMA+ stromal cells. Applicant incubated fibroblasts with different concentration of recombinant mouse Spink1 protein for 24 hours and tested the gene expression level. […] However, the expression level of aSMA was elevated in response to Spink1 treatment (FIG. 23A). This implied that Spink1 could drive the differentiation of fibroblast toward aSMA+ stromal cells.

Data set [5] has as its system mouse. The settings on record: mice with bleomycin pre-treatment.
Procedure: Two sets of experiment were set up: one set with bleomycin pretreatment and the other without bleomycin pretreatment(FIG. 10). Applicant labeled as the groups as: PBS, recombinant Spink1 protein, bleomycin and the combo of bleomycin and recombinant Spink1 protein (the last two groups are the one with bleomycin pretreatment).
For experiment one, Applicant have four groups as illustrated in FIG. 10. Intrathecal administration was used in this study and 20 ug recombinant protein was injected each time. For the group without bleomycin pretreatment, the animals were injected every third day until they were killed at day 22. For the group with bleomycin pretreatment, the animals were pretreated with bleomycin and then the first dose of recombinant Spink1 protein was injected at day 14 after the bleomycin pretreatment. Another 4 doses were given at day 21, day 24, day 27 and day 30. The animals were killed at day 34 and the tissues were harvested and frozen/fixed for further analysis.
In data set [6] the test system is mouse lung. The experiment in a line: Trichome staining of mouse lung. The format is in vivo. To be noted: Spink1-treated mouse lungs. As to the method: (§1) The H&E histology experiment and trichome staining assay were conducted in histology core at northwestern university.
For data set [7], the system named is mouse lung. Nature of the data set: H&E staining of mouse lung. The format is in vivo. To be noted: Spink1-treated mouse lungs. As to the method: as §1
The mark [8] stands for this setting: pathway enrichment, PBS vs Spink1 treatment.

Consider “Spink1: recombinant mouse Spink1 (Spink3) protein, homologue of human SPINK1, Serine protease inhibitor Kazal-type 1 (AKVTGKEASCHDAVAGCPRIYDPVCGTDGITYANECVLCFENRKRIEPVLIRKGGPC; UniProt P09036 24-80, looked up)”, for which, in data set [1] (AT2, combo vs bleomycin), the “gene set "Negative regulation of fibroblast proliferation" (GSEA)” value is on record as “induces the down-regulation” and the “phagosome maturation gene set (GSEA)” value is “significantly down-regulated”. Also, in data set [1] (mouse treated with Spink1), the “expression level of Cdc42” value was “significantly decreased expression level”. In data set [1] (setting [8]), the “apoptosis of aSMA+ cells” value is recorded as “arrested the apoptosis of aSMA+ cells” and the “wound healing pathway in fibroblasts” value is “downregulated”. In data set [1] (regardless of the bleomycin pretreatment), the “expression level of Ftl1” value was “seems to vanish”. The “collagen accumulation (Sircol)” value in data set [2] (healthy animals, no bleomycin pretreatment) is given as “can induce the collagen accumulation”. Moreover, the “collagen content (Sircol)” value in data set [2] (mice with Spink1 treatment, 20 ug per injection) is “accumulative collagen content”. Further, the “proliferation rate of fibroblast” value in data set [3] (24 hr Spink1 incubation) is recorded as “high proliferation rate”. For the same substance, the “proliferation rate of fibroblast” value in data set [3] (48 hr incubation) is “increased rate disappears”. In data set [4], the “expression level of Col1a1” value is “not significantly changed”, the “expression level of Fibronectin” value is listed as “not significantly changed” and the “expression level of aSMA” value is listed as “elevated”. In data set [5], the body weight change entry is “induce weight loss”. Besides, the “collagen deposition (trichome staining)” value in data set [6] is on record as “high level of collagen accumulated”. The “alveolar damage and immune cell infiltration (H&E)” value in data set [7] is “notable alveolar damage and immune cell infiltration”.

In the case of bleomycin [reference compound], in data set [1] (mouse lung scRNA-seq), the “Cthrc1+ fibroblasts in stromal compartment” value is given as “induces the overproduction of Cthrc1^+ fibroblasts”.

With “protein 3: R19A: Spink1 variant R19A with activity ablation (AKVTGKEASCHDAVAGCPAIYDPVCGTDGITYANECVLCFENRKRIEPVLIRKGGPC; UniProt P09036 24-80, looked up, variant R19A)”, the “collagen accumulation (Sircol), Spink1 variants” value in data set [2] (healthy mice, 6 doses, compared with wild type Spink1 and PBS) is given as “fails to induce collagen accumulation”.
